{"source": "patent US20260242395A1", "about": "“AMINOHETEROARYL KINASE INHIBITORS” (ALLORION THERAPEUTICS INC, priority 2022, published 2026)", "key": {"CDK4/CyclinD1": {"biological_target": "T1, CDK4/CyclinD1 (Homo sapiens, UniProt P11802)", "T1 construct": "purchased ProQinase 0142-0143-1", "T1 sequence (P11802 whole entry)": "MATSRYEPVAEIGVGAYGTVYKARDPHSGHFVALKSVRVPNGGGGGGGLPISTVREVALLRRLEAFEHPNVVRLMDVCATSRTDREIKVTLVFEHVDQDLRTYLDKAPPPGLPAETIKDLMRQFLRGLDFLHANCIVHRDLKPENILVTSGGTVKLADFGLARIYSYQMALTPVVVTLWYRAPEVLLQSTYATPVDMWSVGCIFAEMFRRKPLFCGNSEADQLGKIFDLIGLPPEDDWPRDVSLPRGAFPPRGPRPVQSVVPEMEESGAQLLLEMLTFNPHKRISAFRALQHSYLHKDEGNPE", "T1 sequence (P24385 whole entry partner)": "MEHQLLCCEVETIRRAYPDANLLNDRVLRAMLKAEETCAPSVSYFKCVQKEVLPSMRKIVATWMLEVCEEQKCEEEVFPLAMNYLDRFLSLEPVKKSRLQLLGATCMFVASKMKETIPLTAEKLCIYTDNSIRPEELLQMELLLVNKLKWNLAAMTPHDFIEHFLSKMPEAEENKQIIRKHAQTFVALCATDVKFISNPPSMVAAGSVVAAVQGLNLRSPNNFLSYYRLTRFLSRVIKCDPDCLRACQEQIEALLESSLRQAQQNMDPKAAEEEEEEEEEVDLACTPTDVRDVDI", "assay": "CDK4/CyclinD1 kinase inhibitory activity (Caliper mobility shift)", "format": "biochemical", "details": "enzyme 20 nM, ATP 672 uM, 28° C. 30 min; read-out: CDK4/Cyclin D1 IC50", "procedure": "CDK4/CyclinD1 kinase inhibitory activity (IC50): 5 μl of various dilutions of test compound in 1× kinase buffer (20 mM HEPES, pH 7.5, 10 mM MgCl2, 2 mM DTT and 0.01% Triton X-100) was mixed with 10 μL of either CDK4/Cyclin D1 (ProQinase, 0142-0143-1 #, final concentration 20 nM in 1× Kinase buffer) or in 384 plates and incubated at room temperature for 10 min. To initiate each reaction, 10 μL of peptide solution containing fluorescently-labeled-peptide 8(5-FAM-IPTSPITTTYFFFKKK-COOH, GL, 112396 #, final concentration 3000 nM) and ATP (final concentration 672 uM for CDK4/CyclinD1) in 1×Kinase buffer was added to each of the wells containing test compound and CDK4/CyclinD1 mixture. The reaction is then allowed to proceed at 28° C. for 30 min and terminated by the addition of 25 μL stop buffer (100 mM HEPES pH 7.5, 50 mM EDTA, 0.2% Coating Reagent #3 (Perkin Elmer, 760050 #) and 0.015% Brij-35).\n(§1) Following the kinase reaction, Caliper EZ reader II (Downstream voltages: −500V, Upstream voltages: −2250V, Base pressure −0.5 PSI, Screen pressure −1.2 PSI) was used to separate the phosphorylated (product) and the unphosphorylated (substrate) fluorescently-labeled peptide 8 based on their different mobility. Both substrate and product were measured and the ratio of these values were used to generate % conversion by Caliper EZ reader II. These conversion values were then transformed into % inhibition of kinase activity using the formula: % Inhibition=[(MA−X)/(MA−MI)]×100% where MA=conversion value of DMSO only controls, MI=conversion value of no enzyme controls and X=conversion value at any given compound dose. IC50 values were then calculated by plotting dose-response curves and then using the XLfit application in Excel software."}, "CDK6/CyclinD3": {"biological_target": "T2, CDK6/CyclinD3 (Homo sapiens, UniProt Q00534)", "T2 construct": "purchased Carna 04-107", "T2 sequence (Q00534 whole entry)": "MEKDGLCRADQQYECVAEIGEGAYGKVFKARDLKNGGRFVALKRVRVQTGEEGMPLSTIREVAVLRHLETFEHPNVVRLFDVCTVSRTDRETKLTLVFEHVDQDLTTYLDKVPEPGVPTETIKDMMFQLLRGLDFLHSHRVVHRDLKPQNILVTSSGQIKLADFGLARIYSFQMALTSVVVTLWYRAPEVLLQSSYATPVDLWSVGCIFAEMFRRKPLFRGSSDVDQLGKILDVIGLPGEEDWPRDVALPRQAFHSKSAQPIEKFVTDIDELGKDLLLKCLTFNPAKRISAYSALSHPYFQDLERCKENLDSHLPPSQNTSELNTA", "T2 sequence (P30281 whole entry partner)": "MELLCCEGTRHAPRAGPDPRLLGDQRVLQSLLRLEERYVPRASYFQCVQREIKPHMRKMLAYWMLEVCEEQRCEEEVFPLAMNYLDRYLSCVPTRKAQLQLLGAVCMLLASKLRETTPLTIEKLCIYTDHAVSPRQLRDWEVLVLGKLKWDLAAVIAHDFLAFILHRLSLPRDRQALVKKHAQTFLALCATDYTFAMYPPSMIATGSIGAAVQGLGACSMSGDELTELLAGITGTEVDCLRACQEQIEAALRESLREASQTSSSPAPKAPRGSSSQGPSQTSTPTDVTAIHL", "assay": "CDK6/CyclinD3 kinase inhibitory activity (Caliper mobility shift)", "format": "biochemical", "details": "enzyme 15 nM, ATP 800 μM, 28° C. 30 min; read-out: CDK6/Cyclin D3 IC50", "procedure": "CDK6/CyclinD3 kinase inhibitory activity (IC50): 5 μl of various dilutions of test compound in 1× kinase buffer (50 mM HEPES pH 7.5, 10 mM MgCl2, 2 mM DTT and 0.01% Brij-35) was mixed with 10 μL of CDK6/CyclinD3 (Carna, 04-107 #, final concentration 15 nM in 1× Kinase buffer) in 384 plates and incubated at room temperature for 10 min. To initiate each reaction, 10 μL of peptide solution containing fluorescently-labeled -peptide 8(5-FAM-IPTSPITTTYFFFKKK-COOH, GL, 112396 #, final concentration 3000 nM) and ATP (final concentration 800 μM for CDK6/CyclinD3 in 1× Kinase buffer was added to each of the wells containing test compound and CDK6/CyclinD3. The reaction is then allowed to proceed at 28° C. for 30 min and terminated by the addition of 25 μL stop buffer (100 mM HEPES pH 7.5, 50 mM EDTA, 0.2% Coating Reagent #3 (Perkin Elmer, 760050 #) and 0.015% Brij-35).\nas §1"}}, "note": "pIC50: −log10 of the molar value.", "data": [{"compound": "O[C@@H]1COCC[C@H]1Nc1ncc(Cl)c(-c2cc(F)c3ncc4c(c3c2)C2CCC(C4)N2)n1", "note": "(single isomer, unassigned) [Example 20a]", "values": [{"measurement": "pIC50", "setting": "CDK4/CyclinD1", "value": "6.00 to 7.00"}, {"measurement": "pIC50", "setting": "CDK6/CyclinD3", "value": "≤ 6.00"}]}, {"compound": "CC1NCCc2cnc3c(F)cc(-c4nc(N[C@@H]5CCOC[C@H]5O)ncc4Cl)cc3c21", "note": "(single isomer, unassigned) [Example 31a]", "values": [{"measurement": "pIC50", "setting": "CDK4/CyclinD1", "value": "7.00 to 8.00"}, {"measurement": "pIC50", "setting": "CDK6/CyclinD3", "value": "≤ 6.00"}]}, {"compound": "CC1NCCc2cnc3c(F)cc(-c4nc(N[C@@H]5CCOC[C@H]5O)ncc4Cl)cc3c21", "note": "(single isomer, unassigned) [Example 31b]", "values": [{"measurement": "pIC50", "setting": "CDK4/CyclinD1", "value": "> 8.00"}, {"measurement": "pIC50", "setting": "CDK6/CyclinD3", "value": "6.00 to 7.00"}]}, {"compound": "CNC(C)c1cnc2c(F)cc(-c3nc(N[C@@H]4CCOC[C@H]4O)ncc3Cl)cc2c1", "note": "(single isomer, unassigned) [Example 32b]", "values": [{"measurement": "pIC50", "setting": "CDK4/CyclinD1", "value": "7.00 to 8.00"}, {"measurement": "pIC50", "setting": "CDK6/CyclinD3", "value": "6.00 to 7.00"}]}, {"compound": "CC1(O)CCc2nc3c(F)cc(-c4nc(N[C@@H]5CCOC[C@H]5O)ncc4Cl)cc3cc21", "note": "(single isomer, unassigned) [Example 38a]", "values": [{"measurement": "pIC50", "setting": "CDK4/CyclinD1", "value": "> 8.00"}, {"measurement": "pIC50", "setting": "CDK6/CyclinD3", "value": "7.00 to 8.00"}]}, {"compound": "CC1(O)CCc2nc3c(F)cc(-c4nc(N[C@@H]5CCOC[C@H]5O)ncc4Cl)cc3cc21", "note": "(single isomer, unassigned) [Example 38b]", "values": [{"measurement": "pIC50", "setting": "CDK4/CyclinD1", "value": "> 8.00"}, {"measurement": "pIC50", "setting": "CDK6/CyclinD3", "value": "7.00 to 8.00"}]}, {"compound": "CCC(O)c1cc2cc(-c3nc(N[C@@H]4CCOC[C@H]4O)ncc3Cl)cc(F)c2nc1C", "note": "(single isomer, unassigned) [Example 39a]", "values": [{"measurement": "pIC50", "setting": "CDK4/CyclinD1", "value": "> 8.00"}, {"measurement": "pIC50", "setting": "CDK6/CyclinD3", "value": "6.00 to 7.00"}]}, {"compound": "CCC(O)c1cc2cc(-c3nc(N[C@@H]4CCOC[C@H]4O)ncc3Cl)cc(F)c2nc1C", "note": "(single isomer, unassigned) [Example 39b]", "values": [{"measurement": "pIC50", "setting": "CDK4/CyclinD1", "value": "> 8.00"}, {"measurement": "pIC50", "setting": "CDK6/CyclinD3", "value": "6.00 to 7.00"}]}, {"compound": "CC(O)c1cnc2c(F)cc(-c3nc(N[C@@H]4CCOC[C@H]4O)ncc3Cl)cc2c1Cl", "note": "(single isomer, unassigned) [Example 40b]", "values": [{"measurement": "pIC50", "setting": "CDK4/CyclinD1", "value": "> 8.00"}, {"measurement": "pIC50", "setting": "CDK6/CyclinD3", "value": "6.00 to 7.00"}]}, {"compound": "CNC(C)c1cnc2c(F)cc(-c3nc(N[C@@H]4CCOC[C@H]4O)ncc3Cl)cc2c1C", "note": "(single isomer, unassigned) [Example 48a]", "values": [{"measurement": "pIC50", "setting": "CDK4/CyclinD1", "value": "> 8.00"}, {"measurement": "pIC50", "setting": "CDK6/CyclinD3", "value": "6.00 to 7.00"}]}, {"compound": "CNC(C)c1cnc2c(F)cc(-c3nc(N[C@@H]4CCOC[C@H]4O)ncc3Cl)cc2c1C", "note": "(single isomer, unassigned) [Example 48b]", "values": [{"measurement": "pIC50", "setting": "CDK4/CyclinD1", "value": "7.00 to 8.00"}, {"measurement": "pIC50", "setting": "CDK6/CyclinD3", "value": "6.00 to 7.00"}]}, {"compound": "CNC(C)c1cc2cc(-c3nc(N[C@@H]4CCOC[C@H]4O)ncc3F)cc(F)c2nc1C", "note": "(single isomer, unassigned) [Example 54a]", "values": [{"measurement": "pIC50", "setting": "CDK4/CyclinD1", "value": "> 8.00"}, {"measurement": "pIC50", "setting": "CDK6/CyclinD3", "value": "6.00 to 7.00"}]}, {"compound": "CNC(C)c1cc2cc(-c3nc(N[C@@H]4CCOC[C@H]4O)ncc3F)cc(F)c2nc1C", "note": "(single isomer, unassigned) [Example 54b]", "values": [{"measurement": "pIC50", "setting": "CDK4/CyclinD1", "value": "> 8.00"}, {"measurement": "pIC50", "setting": "CDK6/CyclinD3", "value": "6.00 to 7.00"}]}, {"compound": "Cc1nc2c(F)cc(-c3nc(N[C@@H]4CCOC[C@H]4O)ncc3Cl)cc2cc1C1CCCN1", "note": "(single isomer, unassigned) [Example 57b]", "values": [{"measurement": "pIC50", "setting": "CDK4/CyclinD1", "value": "7.00 to 8.00"}, {"measurement": "pIC50", "setting": "CDK6/CyclinD3", "value": "≤ 6.00"}]}, {"compound": "CNC(C)c1cnc2c(F)cc(-c3nc(N[C@@H]4CCOC[C@H]4O)ncc3F)cc2c1C", "note": "(single isomer, unassigned) [Example 59b]", "values": [{"measurement": "pIC50", "setting": "CDK4/CyclinD1", "value": "7.00 to 8.00"}, {"measurement": "pIC50", "setting": "CDK6/CyclinD3", "value": "6.00 to 7.00"}]}, {"compound": "CNC(C)c1cnc2c(F)cc(-c3nc(N[C@@H]4CCOC[C@H]4O)ncc3Cl)cc2c1Cl", "note": "(single isomer, unassigned) [Example 63a]", "values": [{"measurement": "pIC50", "setting": "CDK4/CyclinD1", "value": "7.00 to 8.00"}, {"measurement": "pIC50", "setting": "CDK6/CyclinD3", "value": "6.00 to 7.00"}]}, {"compound": "CNC(C)c1cnc2c(F)cc(-c3nc(N[C@@H]4CCOC[C@H]4O)ncc3F)cc2c1Cl", "note": "(single isomer, unassigned) [Example 64a]", "values": [{"measurement": "pIC50", "setting": "CDK4/CyclinD1", "value": "7.00 to 8.00"}, {"measurement": "pIC50", "setting": "CDK6/CyclinD3", "value": "6.00 to 7.00"}]}, {"compound": "CNC(C)c1cnc2c(F)cc(-c3nc(N[C@@H]4CCOC[C@H]4O)ncc3F)cc2c1Cl", "note": "(single isomer, unassigned) [Example 64b]", "values": [{"measurement": "pIC50", "setting": "CDK4/CyclinD1", "value": "7.00 to 8.00"}, {"measurement": "pIC50", "setting": "CDK6/CyclinD3", "value": "6.00 to 7.00"}]}, {"compound": "Cc1nc2c(F)cc(-c3nc(N[C@@H]4CCOC[C@H]4O)ncc3Cl)cc2cc1C(C)NC1CC1", "note": "(single isomer, unassigned) [Example 73a]", "values": [{"measurement": "pIC50", "setting": "CDK4/CyclinD1", "value": "7.00 to 8.00"}, {"measurement": "pIC50", "setting": "CDK6/CyclinD3", "value": "6.00 to 7.00"}]}, {"compound": "Cc1nc2c(F)cc(-c3nc(N[C@@H]4CCOC[C@H]4O)ncc3F)cc2cc1C(C)NC1CC1", "note": "(single isomer, unassigned) [Example 74b]", "values": [{"measurement": "pIC50", "setting": "CDK4/CyclinD1", "value": "> 8.00"}, {"measurement": "pIC50", "setting": "CDK6/CyclinD3", "value": "6.00 to 7.00"}]}]}
